The values below come from patent US9006440B2, “Furopyridine derivatives” (Merck Patent GmbH, priority 2010, dated 2015).

Molecules are shown by their SMILES.

The experiment addresses T1, Syk (Homo sapiens, UniProt P43405).
T1 construct: purchased BPS Bioscience, CA, USA
The experiment is described as follows: Syk enzyme assay (SYK flash plate assay / Caliper mobility shift). Format: biochemical. As for the experimental part:
The kinase assay is performed either as 384-well Flashplate assay (for e.g. Topcount measurement) or as 384-well Image-Flashplate assay (for LEADseeker measurement).
2.5 nM SYK, 400 nM Biotin-Aha-Aha-KEDPDYEWPSAKK
and 10 μM ATP (spiked with 0.3 μCi 33P-ATP/well) are incubated in a total volume of 50 μl (60 mM Hepes, 10 mM MgCl2, 1.2 mM Dithiothreitol, 0.02% Brij35, 0.1% BSA, pH 7.5) with or without test compound for 1 hours at 30° C. The reaction is stopped with 25 μl 200 mM EDTA. After 30 Min at 30° C. the liquid is removed and each well washed thrice with 100 μl 0.9% sodium chloride solution. Non-specific reaction is determined in presence of 0.1 μM Staurosporine. Radioactivity is measured with Topcount (when using Flashplates) or with LEADseeker (when using Image-Flashplates) respectively. Results (e.g. IC50-values) are calculated with program tools provided by the IT-department (e.g. Symyx Assay Explorer, Genedata Screener). Enzymatic Assays Using the Caliper LifeSciences Technology
The assays described here are performed on the Caliper Life Sciences LC3000 system This technology provides data on enzyme activity via measurement of the relative amounts of phosphorylated or unphosphorylated fluorescently labelled substrate peptide at the end of an enzymatic reaction. These different states of peptide are resolved by applying a potential difference across the sample. The presence of the charged phosphate group on the product (as opposed to the substrate) causes a different peptide mobility between the two peptides. This is visualized by excitation of the fluorescent label on the substrate and product peptides and represented as peaks within the analysis software.
In order to measure inhibitor activity of kinase inhibitors on this technology, a TTP Mosquito liquid handling instrument is used to place 0.25 ul of the appropriate concentration of inhibitor in 100% DMSO (for a dose response curve calculation) into each well of a 384-well plate. To this reaction components are added to a final volume of 25 ul. The table below indicates the sequences and concentrations for the assays described in this report. Standard components are 1 mM DTT (Sigma, D0632), 1 mM MgCl2 (Sigma, M1028), 100 mM HEPES pH 7.5 (Calbiochem, 391338), 0.015% Brij-35 (Sigma, B4184).
The reaction is incubated for 90 min at 25 C, and then stopped by the addition of 70 ul of Stop buffer (100 mM HEPES pH 7.5, 0.015% Brij-35, 10 mM EDTA (Sigma, E7889)).
The plate is read on a Caliper LC 3000 in an Off-Chip mobility shift assay format, on a 12-sipper chip. Unphosphorylated substrate and phosphorylated product peptide resolve as separate peaks allowing direct measurement of percentage of conversion of substrate to product. The percent conversion can be plotted against concentration of inhibitor to produce a sigmoidal dose response curve, from which an IC50 can be calculated using GeneData Condoseo or a similar product.

As a reminder, the IC50 is the concentration that gives 50% inhibition. Regarding `CNC(=O)c1cccc(-c2ccnc3cc(-c4cc(OC)c(OC)c(OC)c4)oc23)c1` [Compound A7, N-Methyl-3-[2-(3,4,5-trimethoxy-phenyl)-furo[3,2-b]pyridin-7-yl]-benzamide], the IC50 is < 0.3 µM. In the case of `COc1cc(-c2cc3nccc(-c4cccc(C(=O)NCCN(C)C)c4)c3o2)cc(OC)c1OC` [Compound A8, N-(2-Dimethylamino-ethyl)-3-[2-(3,4,5-trimethoxy-phenyl)-furo[3,2-b]pyridin-7-yl]-benzamide], the IC50 was < 0.3 µM. Regarding `COC(=O)c1cccc(-c2ccnc3cc(-c4cc(OC)c(OC)c(OC)c4)oc23)c1` [Compound A11, 3-[2-(3,4,5-Trimethoxy-phenyl)-furo[3,2-b]pyridin-7-yl]-benzoic acid methyl ester], the IC50 was 0.3 to 3 µM.

For `COc1cc(-c2cc3nccc(-c4ccc(C#N)cc4)c3o2)cc(OC)c1OC` [Compound A12, 4-[2-(3,4,5-Trimethoxy-phenyl)-furo[3,2-b]pyridin-7-yl]-benzonitrile], the IC50 was in the range of 3 to 50 µM. For `COc1cc(-c2cc3nccc(-c4cccc5ncccc45)c3o2)cc(OC)c1OC` [Compound A18, 5-[2-(3,4,5-Trimethoxy-phenyl)-furo[3,2-b]pyridin-7-yl]-quinoline], the half-maximal inhibitory concentration (IC50) lay within 0.3 to 3 µM. On to `COc1cc(-c2cc3nccc(-c4ccccc4C)c3o2)cc(OC)c1OC` [Compound A21, 7-o-Tolyl-2-(3,4,5-trimethoxy-phenyl)-furo[3,2-b]pyridine], for which the IC50 is < 0.3 µM. Turning to `COc1cc(-c2cc3nccc(-c4cccc5ccccc45)c3o2)cc(OC)c1OC` [Compound A22, 7-Naphthalene-1-yl-2-(3,4,5-trimethoxy-phenyl)-furo[3,2-b]pyridine], the IC50 lay within 0.3 to 3 µM.

For the compound `COc1cc(-c2cc3nccc(-c4ccc5ncccc5c4)c3o2)cc(OC)c1OC` [Compound A23, 6-[2-(3,4,5-Trimethoxy-phenyl)-furo[3,2-b]pyridin-7-yl]-quinoline], the IC50 was < 0.3 µM. Next, `COc1cc(-c2cc3nccc(-c4ccnc5ccccc45)c3o2)cc(OC)c1OC` [Compound A24, 4-[2-(3,4,5-Trimethoxy-phenyl)-furo[3,2-b]pyridin-7-yl]-quinoline]: 0.3 to 3 µM. In the case of `COc1cc(-c2cc3nccc(-c4ccc(C)c5ncccc45)c3o2)cc(OC)c1OC` [Compound A26, 8-Methyl-5-[2-(3,4,5-trimethoxy-phenyl)-furo[3,2-b]pyridin-7-yl]-quinoline], the IC50 is 0.3 to 3 µM. Regarding `COc1cc(-c2cc3nccc(-c4ccc5cc[nH]c5c4)c3o2)cc(OC)c1OC` [Compound A27, 7-(1H-Indol-6-yl)-2-(3,4,5-trimethoxy-phenyl)-furo[3,2-b]pyridine], the IC50 is < 0.3 µM. Regarding `COc1cc(-c2cc3nccc(-c4cccc(OCc5ccccc5)c4)c3o2)cc(OC)c1OC` [Compound A31, 7-(3-Benzyloxy-phenyl)-2-(3,4,5-trimethoxy-phenyl)-furo[3,2-b]pyridine], the IC50 fell in the range of 3 to 50 µM. Regarding `COc1cc(-c2cc3nccc(-c4ccc(C)cc4C)c3o2)cc(OC)c1OC` [Compound A32, 7-(2,4-Dimethyl-phenyl)-2-(3,4,5-trimethoxy-phenyl)-furo[3,2-b]pyridine], the IC50 is 0.3 to 3 µM. Regarding `CCOC(=O)Cn1cc(-c2ccnc3cc(-c4cc(OC)c(OC)c(OC)c4)oc23)cn1` [Compound A33, {4-[2-(3,4,5-Trimethoxy-phenyl)-furo[3,2-b]pyridin-7-yl]-pyrazol-1-yl}-acetic acid ethyl ester], the IC50 was < 0.3 µM. As for `COc1cc(-c2cc3nccc(-c4cnn(C)c4)c3o2)cc(OC)c1OC` [Compound A34, 7-(1-Methyl-1H-pyrazol-4-yl)-2-(3,4,5-trimethoxy-phenyl)-furo[3,2-b]pyridine], the figure is < 0.3 µM; as for `Cc1cc(C(=O)NC(C)(C)CO)cc(-c2cc3nccc(-c4ccccc4)c3o2)c1` [Compound A43, N-(2-Hydroxy-1,1-dimethyl-ethyl)-3-methyl-5-(7-phenyl-furo[3,2-b]pyridin-2-yl)-benzamide], < 0.3 µM.
